# Measurements published in PMC7584476, “Safety and efficacy of BAY1436032 in IDH1-mutant AML: phase I study results” (Leukemia, 2020).
# “Also recorded” adds a separate entry of the source.
# Test system: subjects with mIDH1 advanced AML
# Assay: Phase I study: safety and tolerability (TEAE, DLT, MTD, ECG)
# Assay type: in vivo
# Method: This study was an open-label, nonrandomized, multicenter phase I trial. Subjects were screened at 13 hospital sites in 2 countries (USA and Germany). The study was to consist of dose-escalation followed by dose-expansion. The MTD identified in dose-escalation was to be used in the dose-expansion. If MTD was not reached in dose-escalation, a dose for the expansion would be selected based on available PK, pharmacodynamic, safety, and efficacy data. BAY1436032 was administered twice-daily (BID) in continuous 28-day cycles. In dose-escalation, up to 9 evaluable subjects could be enrolled per cohort, with a minimum of 3 dose-limiting toxicity (DLT)-free evaluable subjects required prior to escalating to the next highest dose. Bayesian dose-DLT modeling was performed to help guide dosing decisions.
# DLTs were differentially defined for nonhematopoietic versus hematopoietic toxicities. Nonhematopoietic toxicities of ≥grade 3 occurring during the first cycle of treatment were to be considered DLTs with the following exceptions: (1) Alopecia and nausea controlled by medical management; (2) Tumor lysis syndrome if successfully managed clinically and resolved within 7 days without any end-organ damage; (3) Differentiation syndrome (DS) if successfully managed clinically and resolved within 7 days without any end-organ damage; (4) Asymptomatic ≥grade 3 electrolyte abnormalities not considered clinically significant by the investigator. […] For certain toxicities such as laboratory assessments without a clear clinical correlate, a discussion between the investigator and the sponsor determined whether the adverse event (AE) should be assessed as a DLT.
# DLTs identified during the first cycle of treatment were used to guide dose-escalation decisions and to determine the MTD, and if safety issues appeared in subsequent cycles they were also to be considered. Hydroxyurea was permitted during the first cycle if white blood cell (WBC) exceeded 20 × 10^9/L and was also permitted for treatment of DS.
# Safety and tolerability were evaluated by analysis of adverse events, physical examinations, vital signs, ECOG performance status, and various laboratory assessments. For safety monitoring, subjects were scheduled for clinic visits every week for the initial three cycles of treatment, after which time visits could be reduced to every-other-week with investigator and sponsor agreement. Cardiac function was assessed with triplicate 12-lead electrocardiograms (ECG) at screening, C1-D1, C1-D2, C1-D15, D1 of every subsequent cycle, and at treatment end. […] AEs are presented by the Medical Dictionary for Regulatory Activities (MedDRA) v21.1.
smiles,measurement,setting,value
C[C@H]1C[C@@H](n2c(Nc3ccc(OC(F)(F)F)cc3)nc3cc(CCC(=O)O)ccc32)CC(C)(C)C1 [BAY1436032],TEAE Sepsis Grade 5,"1500 mg BID, n=9",1
same,TEAE Sinus tachycardia Grade 1,"1500 mg BID, n=9",1
same,TEAE Thrombocytopenia Grade 4,"1500 mg BID, n=9",2
same,TEAE Vomiting Grade 1,"1500 mg BID, n=9",3
same,TEAE Weight decreased Grade 1,"1500 mg BID, n=9",0
same,TEAE Weight decreased Grade 2,"1500 mg BID, n=9",0
same,TEAE Weight decreased Grade 3,"1500 mg BID, n=9",1
same,Deaths during treatment or within 30 days of discontinuation,27 treated,Six of 27
same,Related TEAE DS grade 3,27 treated,single subject
same,Related TEAE Fatigue Grade 3,27 treated,single subject
same,Related TEAE amylase increase grade 3,27 treated,single subject
same,Related TEAE anemia grade 4,27 treated,single subject
same,Related TEAE decreased WBC count grade 3,27 treated,single subject
same,Related TEAE decreased neutrophil count grade 4,27 treated,single subject
same,Related TEAE decreased platelet count grade 4,27 treated,single subject
same,Related TEAE febrile neutropenia grade 3,27 treated,single subject
same,Related TEAE hyponatremia grade 3,27 treated,single subject
same,Related TEAE ileus grade 4,27 treated,single subject
same,Related TEAE lung infiltration grade 3,27 treated,single subject
same,Related TEAE peripheral edema grade 3,27 treated,single subject
same,Related TEAE pneumonitis grade 3,27 treated,single subject
same,Related TEAE sepsis grade 4,27 treated,single subject
same,Subjects with DS or symptoms associated with DS,27 treated,19%
same,Subjects with at least 1 TEAE of any grade related to BAY1436032,27 treated,Seventeen of 27
same,Subjects with at least 1 TEAE of ≥grade 3 related to BAY1436032,27 treated,Seven of 27
same,Subjects with at least 1 TEAE ≥ grade 3 irrespective of relationship,27 treated,Twenty-four
same,Maximum tolerated dose,300 to 1500 mg BID,not identified; also recorded: No MTD was identified
same,Related TEAE Decreased appetite Grade 1,"Total, n=27",1 (4) n (%)
same,Related TEAE Decreased appetite Grade 2,"Total, n=27",1 (4) n (%)
same,Related TEAE Diarrhea Grade 2,"Total, n=27",2 (7) n (%)
same,Related TEAE Differentiation syndrome Grade 2,"Total, n=27",1 (4) n (%)
same,Related TEAE Differentiation syndrome Grade 3,"Total, n=27",1 (4) n (%)
same,Related TEAE Dyspnea Grade 1,"Total, n=27",2 (7) n (%)
same,Related TEAE Dyspnea Grade 2,"Total, n=27",1 (4) n (%)
same,Related TEAE Fatigue Grade 1,"Total, n=27",1 (4) n (%)
same,Related TEAE Fatigue Grade 2,"Total, n=27",2 (7) n (%)
same,Related TEAE Fatigue Grade 3,"Total, n=27",1 (4) n (%)
same,Related TEAE Hypomagnesaemia Grade 1,"Total, n=27",2 (7) n (%)
same,Related TEAE Nausea Grade 1,"Total, n=27",4 (15) n (%)
same,Related TEAE Nausea Grade 2,"Total, n=27",1 (4) n (%)
same,Related TEAE Sinus tachycardia Grade 1,"Total, n=27",2 (7) n (%)
same,Related TEAE Vomiting Grade 1,"Total, n=27",4 (15) n (%)
same,TEAE Abdominal pain upper Grade 1,"Total, n=27",2 (7) n (%)
same,TEAE Abdominal pain upper Grade 2,"Total, n=27",1 (4) n (%)
same,TEAE Acute kidney injury Grade 1,"Total, n=27",1 (4) n (%)
same,TEAE Acute kidney injury Grade 2,"Total, n=27",1 (4) n (%)
same,TEAE Acute kidney injury Grade 3,"Total, n=27",1 (4) n (%)
same,TEAE Anaemia Grade 3,"Total, n=27",4 (15) n (%)
same,TEAE Anaemia Grade 4,"Total, n=27",1 (4) n (%)
same,TEAE Anxiety Grade 1,"Total, n=27",2 (7) n (%)
same,TEAE Anxiety Grade 2,"Total, n=27",1 (4) n (%)
same,TEAE Arthralgia Grade 1,"Total, n=27",1 (4) n (%)
same,TEAE Arthralgia Grade 2,"Total, n=27",2 (7) n (%)
same,TEAE Constipation Grade 1,"Total, n=27",4 (15) n (%)
same,TEAE Constipation Grade 2,"Total, n=27",1 (4) n (%)
same,TEAE Contusion Grade 1,"Total, n=27",3 (11) n (%)
same,TEAE Contusion Grade 2,"Total, n=27",1 (4) n (%)
same,TEAE Cough Grade 1,"Total, n=27",3 (11) n (%)
same,TEAE Cough Grade 2,"Total, n=27",2 (7) n (%)
same,TEAE Decreased appetite Grade 1,"Total, n=27",5 (19) n (%)
same,TEAE Decreased appetite Grade 2,"Total, n=27",3 (11) n (%)
same,TEAE Decreased appetite Grade 3,"Total, n=27",1 (4) n (%)
same,TEAE Diarrhea Grade 1,"Total, n=27",7 (26) n (%)
same,TEAE Diarrhea Grade 2,"Total, n=27",3 (11) n (%)
same,TEAE Dry skin Grade 1,"Total, n=27",5 (19) n (%)
same,TEAE Dyspnoea Grade 1,"Total, n=27",4 (15) n (%)
same,TEAE Dyspnoea Grade 2,"Total, n=27",2 (7) n (%)
